Measured values: patent US20060069132A1, “Azolecarboxamide herbicides” (priority 2004, published 2006)

Legend:
Assay in all cases: Test E pre-/postemergence herbicide test
southern sandbur = assay type: in vivo, Cenchrus echinatus
How it was run: (§1)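 Visual 0–100 rating vs untreated controls (0 = no effect, 100 = complete control), 12–14 d after treatment in greenhouse. Pre- and postemergence (2–18 cm, 1- to 4-leaf) applications; compounds in non-phytotoxic solvent with surfactant.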

common sowthistle = assay type: in vivo, Sonchus oleraceous
How it was run: as §1

field bindweed = assay type: in vivo, Convolvulus arvensis
How it was run: as §1

bermudagrass = assay type: in vivo, Cynodon dactylon
How it was run: as §1

bipinnate beggarticks = assay type: in vivo, Bidens bipinnata; conditions: scale 0 to 100
How it was run: as §1

goosegrass = assay type: in vivo, Eleusine indica
How it was run: as §1

johnsongrass = assay type: in vivo, Sorghum halepense
How it was run: as §1

Russian thistle = assay type: in vivo, Salsola kali; conditions: scale 0 to 100
How it was run: as §1

green foxtail = assay type: in vivo, Setaria viridis
How it was run: as §1

purple nutsedge = assay type: in vivo, Cyperus rotundus
How it was run: as §1

quackgrass = assay type: in vivo, Elytrigia repens
How it was run: as §1

[1] = Postemergence, 500 g ai/ha, scale 0 to 100
[2] = Postemergence, 250 g ai/ha, scale 0 to 100
[3] = Preemergence, 62 g ai/ha, scale 0 to 100
[4] = Preemergence, 125 g ai/ha, scale 0 to 100
[5] = Preemergence, 250 g ai/ha, scale 0 (no effect) to 100 (complete control)
[6] = Preemergence, 500 g ai/ha, scale 0 (no effect) to 100 (complete control)
[7] = postemergence, 125 g ai/ha, scale 0 to 100
[8] = postemergence, 62 g ai/ha, scale 0 to 100

CCn1nc(C2(C)CC2)cc1C(=O)Nc1cc(C(=O)N(C)C)ccc1F [Compound 299]
Plant response rating, Sandbur (southern sandbur; [1]): 80
Plant response rating, Sandbur (southern sandbur; [2]): 70
Plant response rating, Sandbur (southern sandbur; [3]): 10
Plant response rating, Sandbur (southern sandbur; [4]): 60
Plant response rating, Sandbur (southern sandbur; [5]): 100
Plant response rating, Sandbur (southern sandbur; [6]): 100
Plant response rating, Sandbur (southern sandbur; [7]): 40
Plant response rating, Sandbur (southern sandbur; [8]): 30
Plant response rating, Sowthistle (common sowthistle; [2]): 95
Plant response rating, Sowthistle (common sowthistle; [3]): 100
Plant response rating, Sowthistle (common sowthistle; [4]): 100
Plant response rating, Sowthistle (common sowthistle; [5]): 100
Plant response rating, Sowthistle (common sowthistle; [6]): 95
Plant response rating, Sowthistle (common sowthistle; [7]): 85
Plant response rating, Sowthistle (common sowthistle; [8]): 30
Plant response rating, Bindweed, Field (field bindweed; [1]): 95
Plant response rating, Bindweed, Field (field bindweed; [2]): 80
Plant response rating, Bindweed, Field (field bindweed; [3]): 10
Plant response rating, Bindweed, Field (field bindweed; [4]): 60
Plant response rating, Bindweed, Field (field bindweed; [5]): 95
Plant response rating, Bindweed, Field (field bindweed; [6]): 100
Plant response rating, Bindweed, Field (field bindweed; [7]): 70
Plant response rating, Bindweed, Field (field bindweed; [8]): 30
Plant response rating, Bermudagrass (bermudagrass; [1]): 80
Plant response rating, Bermudagrass (bermudagrass; [2]): 70
Plant response rating, Bermudagrass (bermudagrass; [3]): 80
Plant response rating, Bermudagrass (bermudagrass; [4]): 100
Plant response rating, Bermudagrass (bermudagrass; [5]): 100
Plant response rating, Bermudagrass (bermudagrass; [6]): 95
Plant response rating, Bermudagrass (bermudagrass; [7]): 50
Plant response rating, Bermudagrass (bermudagrass; [8]): 40
Plant response rating, Beggarticks, Bip. (bipinnate beggarticks; Postemergence, 500 g ai/ha): 80
Plant response rating, Beggarticks, Bip. (bipinnate beggarticks; Postemergence, 250 g ai/ha): 60
Plant response rating, Beggarticks, Bip. (bipinnate beggarticks; postemergence, 125 g ai/ha): 60
Plant response rating, Beggarticks, Bip. (bipinnate beggarticks; postemergence, 62 g ai/ha): 40
Plant response rating, Goosegrass (goosegrass; [1]): 85
Plant response rating, Goosegrass (goosegrass; [2]): 80
Plant response rating, Goosegrass (goosegrass; [3]): 100
Plant response rating, Goosegrass (goosegrass; [4]): 100
Plant response rating, Goosegrass (goosegrass; [5]): 100
Plant response rating, Goosegrass (goosegrass; [6]): 100
Plant response rating, Goosegrass (goosegrass; [7]): 80
Plant response rating, Goosegrass (goosegrass; [8]): 60
Plant response rating, Johnsongrass (johnsongrass; [1]): 85
Plant response rating, Johnsongrass (johnsongrass; [2]): 85
Plant response rating, Johnsongrass (johnsongrass; [3]): 40
Plant response rating, Johnsongrass (johnsongrass; [4]): 60
Plant response rating, Johnsongrass (johnsongrass; [5]): 80
Plant response rating, Johnsongrass (johnsongrass; [6]): 100
Plant response rating, Johnsongrass (johnsongrass; [7]): 80
Plant response rating, Johnsongrass (johnsongrass; [8]): 60
Plant response rating, Thistle (Russian thistle; Postemergence, 500 g ai/ha): 90
Plant response rating, Thistle (Russian thistle; Postemergence, 250 g ai/ha): 70
Plant response rating, Thistle (Russian thistle; Preemergence, 125 g ai/ha): 100
Plant response rating, Foxtail, Green (green foxtail; [1]): 100
Plant response rating, Foxtail, Green (green foxtail; [2]): 85
Plant response rating, Foxtail, Green (green foxtail; [3]): 50
Plant response rating, Foxtail, Green (green foxtail; [4]): 100
Plant response rating, Foxtail, Green (green foxtail; [5]): 100
Plant response rating, Foxtail, Green (green foxtail; [6]): 100
Plant response rating, Foxtail, Green (green foxtail; [7]): 70
Plant response rating, Foxtail, Green (green foxtail; [8]): 30
Plant response rating, Nutsedge, Purple (purple nutsedge; [1]): 85
Plant response rating, Nutsedge, Purple (purple nutsedge; [2]): 80
Plant response rating, Nutsedge, Purple (purple nutsedge; [3]): 50
Plant response rating, Nutsedge, Purple (purple nutsedge; [5]): 80
Plant response rating, Nutsedge, Purple (purple nutsedge; [7]): 75
Plant response rating, Nutsedge, Purple (purple nutsedge; [8]): 40
Plant response rating, Quackgrass (quackgrass; [1]): 100
Plant response rating, Quackgrass (quackgrass; [2]): 85
Plant response rating, Quackgrass (quackgrass; [3]): 80
Plant response rating, Quackgrass (quackgrass; [4]): 80
Plant response rating, Quackgrass (quackgrass; [5]): 95
Plant response rating, Quackgrass (quackgrass; [6]): 100
Plant response rating, Quackgrass (quackgrass; [7]): 75
Plant response rating, Quackgrass (quackgrass; [8]): 20
